From patent US10561703B2, “Method of modulating sex hormone levels using a sex hormone secretion modulator” (GEMVAX & KAEL CO., LTD., priority 2013, dated 2020)

Columns and labels:
GnRH mRNA = assay: Relative GnRH mRNA expression in serum, real-time qPCR; format: in vivo, Sprague-Dawley (SD) rats; settings: 100 mg/kg sc, 4 hr post-administration, Day 1
Protocol: Sprague-Dawley (SD) rats were obtained from Orient Bio (Gyronggi-do, South Korea), and seven-week-old rats were used for the study. Rat were administered by subcutaneous (sc) injection of PEP-1 (100 mg/kg) twice (at Day 1 and at Day 7) during the seven day study period. Blood samples (1.4 mL) were collected at Day 0 (before the administration of PEP-1), at Day 1 (4 hr and 8 hr post injection), and at Day 7 (4 hr post injection). Serum samples obtained from the blood were used for the experiment. Serum samples prepared from the blood collected at Day 1 (4 hr post injection) were used for the experiment. The animal care and procedures were approved and in accordance with the Korea Animal Medical Science Institute (KAMSI) IACUC.
RNA isolation and cDNA synthesis from the serum samples. The external control, miRNeasy Serum/Plasma Spike-In Control was added in each serum sample prior to the RNA extraction. […]
Real-time qPCR was performed using the RT2 SYBR Green qPCR Mastermix kit (Qiagen) with a CFX96 Real-Time System (Bio-Rad, Hercules, Calif., USA). Data was analyzed by CFX Manager™ Software V3.0 using the ΔΔCt method.
Rat serum samples obtained from the blood collected at 4 hr post-administration of PEP-1 (100 mg/kg) on the 1st day of the experiment were analyzed for the mRNA expression of gonadotropin-releasing hormone (GnRH). […]

RWPE-1 = assay: Cell proliferation (CCK-8) in prostate epithelial cell line; format: cell-based
Protocol: When testosterone is injected into the body, testosterone becomes dihydrotestosterone (DHT) due to 5α-reductase, which stimulates the proliferation of prostate cells and induces benign prostatatic hyperplasia (BPH). Based on these facts, a PEP-1 (GV1001) injection experiment was performed for the inhibition of proliferation of prostatic cells in the following manner: The cell lines were mesenchymal cell lines (WPMY-1) and epithelial cell lines (RWPE-1) of prostates obtained from BPH animal models. […] Observation of changes in the proliferation was performed by suctioning a culture medium, adding 10 μL of CCK-8 solution to each well, and measuring an optical density at 450 nm for 1 hour to about 4 hours.

## EARPALLTSRLRFIPK (listed as Homo sapiens) [PEP-1, hormone secretion modulator / GnRH analog]
GnRH mRNA; female rats
  Relative GnRH mRNA expression in serum: increased the relative GnRH mRNA expression
GnRH mRNA; male rats
  Relative GnRH mRNA expression in serum: increased the relative GnRH mRNA expression
RWPE-1; RWPE-1, 100 and 200 μM GV1001, no DHT
  Cell proliferation (optical density at 450 nm) versus untreated cells: did not show a substantial difference in optical densities
RWPE-1; RWPE-1, 100 and 200 μM GV1001 with 25 nM DHT
  Inhibition of DHT-induced cell proliferation: substantial inhibition effects on proliferation
